Legend:
Assay in all cases: Test D controlled growth environment herbicide test, pre- and postemergence
Type in all cases: in vivo
[1] = test system: Russian thistle (Salsola kali)
Method in brief: (§1)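 Rating is visual, 0–100 scale (100 = complete control), made against untreated plants 14–21 d after treatment in controlled growth conditions. Postemergence sprays went onto 1- to 4-leaf plants in peat medium; preemergence sprays onto silt loam after sowing; formulation included a surfactant.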

[2] = test system: barley, spring (spring barley, Hordeum vulgare)
Method in brief: as §1

[3] = test system: chamomile (scentless chamomile, Matricaria inodora)
Method in brief: as §1

[4] = test system: chickweed (common chickweed, Stellaria media)
Method in brief: as §1

[5] = test system: deadnettle (henbit deadnettle, Lamium amplexicaule)
Method in brief: as §1

[6] = test system: field poppy (Papaver rhoeas)
Method in brief: as §1

[7] = test system: field violet (Viola arvensis)
Method in brief: as §1

kochia (Kochia scoparia) = test system: kochia (Kochia scoparia)
Method in brief: as §1

[8] = test system: mustard, wild (wild mustard, Sinapis arvensis)
Method in brief: as §1

[9] = test system: oat, wild (wild oat, Avena fatua)
Method in brief: as §1

[10] = test system: oilseed rape (Brassica napus)
Method in brief: as §1

[11] = test system: radish, wild (wild radish, Raphanus raphanistrum)
Method in brief: as §1

[12] = test system: speedwell (bird's-eye speedwell, Veronica persica)
Method in brief: as §1

[13] = test system: wheat, winter (winter wheat, Triticum aestivum)
Method in brief: as §1

[14] = Postemergence, 31 g ai/ha, scale 0 to 100 (0 no effect, 100 complete control)
[15] = Postemergence, 125 g ai/ha, visual rating on scale 0 (no effect) to 100 (complete control), 14 to 21 d
[16] = Postemergence, 250 g ai/ha, scale 0 to 100 (0 no effect, 100 complete control)
[17] = Preemergence, 62 g ai/ha, scale 0 to 100 (0 no effect, 100 complete control)
[18] = Preemergence, 125 g ai/ha, scale 0 to 100 (0 no effect, 100 complete control)
[19] = Preemergence, 250 g ai/ha, scale 0 to 100, 0 no effect, 100 complete control
[20] = postemergence, 62 g ai/ha, scale 0 to 100, 0 no effect, 100 complete control

SMILES: Cc1ccc2sc(Br)c(-c3c(O)c(C)nn(C)c3=O)c2c1 [Compound 79]
- Russian Thistle plant response rating [1, 14]: 50
- Plant response rating, Russian Thistle [1, 15]: 55
- Plant response rating, Russian Thistle [1, 16]: 65
- Plant response rating (scale of 0 to 100), Russian Thistle ([1]; Preemergence, 31 g ai/ha): 0
- Plant response rating, Russian Thistle [1, 17]: 70
- Plant response rating, Russian Thistle [1, 18]: 75
- Plant response rating, Russian Thistle [1, 19]: 100
- Plant response rating, Russian Thistle [1, 20]: 55
- Barley, Spring plant response rating [2, 14]: 0
- Plant response rating, Barley, Spring [2, 15]: 5
- Plant response rating, Barley, Spring [2, 16]: 10
- Plant response rating (scale of 0 to 100), Barley, Spring ([2]; Preemergence, 31 g ai/ha): 0
- Plant response rating, Barley, Spring [2, 17]: 0
- Plant response rating, Barley, Spring [2, 18]: 0
- Plant response rating, Barley, Spring [2, 19]: 0
- Plant response rating, Barley, Spring [2, 20]: 5
- Chamomile plant response rating [3, 14]: 85
- Plant response rating, Chamomile [3, 15]: 100
- Plant response rating, Chamomile [3, 16]: 100
- Plant response rating, Chamomile [3, 20]: 95
- Chickweed plant response rating [4, 14]: 95
- Plant response rating, Chickweed [4, 15]: 100
- Plant response rating, Chickweed [4, 16]: 100
- Plant response rating (scale of 0 to 100), Chickweed ([4]; Preemergence, 31 g ai/ha): 100
- Plant response rating, Chickweed [4, 17]: 100
- Plant response rating, Chickweed [4, 18]: 100
- Plant response rating, Chickweed [4, 19]: 100
- Plant response rating, Chickweed [4, 20]: 95
- Deadnettle plant response rating [5, 14]: 5
- Plant response rating, Deadnettle [5, 15]: 20
- Plant response rating, Deadnettle [5, 16]: 40
- Plant response rating (scale of 0 to 100), Deadnettle ([5]; Preemergence, 31 g ai/ha): 0
- Plant response rating, Deadnettle [5, 17]: 10
- Plant response rating, Deadnettle [5, 18]: 100
- Plant response rating, Deadnettle [5, 19]: 90
- Plant response rating, Deadnettle [5, 20]: 15
- Field Poppy plant response rating [6, 14]: 75
- Plant response rating, Field Poppy [6, 15]: 95
- Plant response rating, Field Poppy [6, 16]: 98
- Plant response rating (scale of 0 to 100), Field Poppy ([6]; Preemergence, 31 g ai/ha): 100
- Plant response rating, Field Poppy [6, 17]: 100
- Plant response rating, Field Poppy [6, 18]: 100
- Plant response rating, Field Poppy [6, 19]: 100
- Plant response rating, Field Poppy [6, 20]: 85
- Field Violet plant response rating [7, 14]: 75
- Plant response rating, Field Violet [7, 15]: 85
- Plant response rating, Field Violet [7, 16]: 95
- Plant response rating (scale of 0 to 100), Field Violet ([7]; Preemergence, 31 g ai/ha): 80
- Plant response rating, Field Violet [7, 17]: 85
- Plant response rating, Field Violet [7, 18]: 98
- Plant response rating, Field Violet [7, 19]: 100
- Plant response rating, Field Violet [7, 20]: 75
- Kochia plant response rating (kochia (Kochia scoparia); [14]): 70
- Plant response rating, Kochia (kochia (Kochia scoparia); [15]): 85
- Plant response rating, Kochia (kochia (Kochia scoparia); [16]): 95
- Plant response rating (scale of 0 to 100), Kochia (kochia (Kochia scoparia); Preemergence, 31 g ai/ha): 60
- Plant response rating, Kochia (kochia (Kochia scoparia); [17]): 55
- Plant response rating, Kochia (kochia (Kochia scoparia); [18]): 100
- Plant response rating, Kochia (kochia (Kochia scoparia); [19]): 95
- Plant response rating, Kochia (kochia (Kochia scoparia); [20]): 80
- Mustard, Wild plant response rating [8, 14]: 20
- Plant response rating, Mustard, Wild [8, 15]: 40
- Plant response rating, Mustard, Wild [8, 16]: 50
- Plant response rating (scale of 0 to 100), Mustard, Wild ([8]; Preemergence, 31 g ai/ha): 0
- Plant response rating, Mustard, Wild [8, 17]: 15
- Plant response rating, Mustard, Wild [8, 18]: 5
- Plant response rating, Mustard, Wild [8, 19]: 10
- Plant response rating, Mustard, Wild [8, 20]: 20
- Oat, Wild plant response rating [9, 14]: 70
- Plant response rating, Oat, Wild [9, 15]: 80
- Plant response rating, Oat, Wild [9, 16]: 85
- Plant response rating (scale of 0 to 100), Oat, Wild ([9]; Preemergence, 31 g ai/ha): 80
- Plant response rating, Oat, Wild [9, 17]: 80
- Plant response rating, Oat, Wild [9, 18]: 85
- Plant response rating, Oat, Wild [9, 19]: 90
- Plant response rating, Oat, Wild [9, 20]: 70
- Oilseed Rape plant response rating [10, 14]: 0
- Plant response rating, Oilseed Rape [10, 15]: 20
- Plant response rating, Oilseed Rape [10, 16]: 30
- Plant response rating (scale of 0 to 100), Oilseed Rape ([10]; Preemergence, 31 g ai/ha): 25
- Plant response rating, Oilseed Rape [10, 17]: 35
- Plant response rating, Oilseed Rape [10, 18]: 40
- Plant response rating, Oilseed Rape [10, 19]: 35
- Plant response rating, Oilseed Rape [10, 20]: 5
- Radish, Wild plant response rating [11, 14]: 0
- Plant response rating, Radish, Wild [11, 15]: 0
- Plant response rating, Radish, Wild [11, 16]: 65
- Plant response rating (scale of 0 to 100), Radish, Wild ([11]; Preemergence, 31 g ai/ha): 25
- Plant response rating, Radish, Wild [11, 17]: 25
- Plant response rating, Radish, Wild [11, 18]: 45
- Plant response rating, Radish, Wild [11, 19]: 55
- Plant response rating, Radish, Wild [11, 20]: 0
- Speedwell plant response rating [12, 14]: 25
- Plant response rating, Speedwell [12, 15]: 35
- Plant response rating, Speedwell [12, 16]: 65
- Plant response rating, Speedwell [12, 20]: 30
- Wheat, Winter plant response rating [13, 14]: 0
- Plant response rating, Wheat, Winter [13, 15]: 0
- Plant response rating, Wheat, Winter [13, 16]: 0
- Plant response rating (scale of 0 to 100), Wheat, Winter ([13]; Preemergence, 31 g ai/ha): 0
- Plant response rating, Wheat, Winter [13, 17]: 0
- Plant response rating, Wheat, Winter [13, 18]: 0
- Plant response rating, Wheat, Winter [13, 19]: 0
- Plant response rating, Wheat, Winter [13, 20]: 0

From patent US10597388B2, “Pyridazinone herbicides” (FMC CORPORATION, priority 2014, dated 2020)
